# Assay results taken from patent US4428942A, “Analogs of somatostatin” (The Salk Institute for Biological Studies, priority 1982, dated 1984).
# Read-outs that look alike come from different tables or passages of the source. Bridge positions count the residues as written; N and C are the ends. Square brackets hold non-standard residues; d marks the D form. Peptide text beside a SMILES is read from it.
# Legend:
# isolated rabbit ileum = tested on: isolated rabbit ileum
# Protocol: The analogs are tested in vitro in isolated rabbit ileum using the modified Ussing chamber technique, as described in Amer. J. of Physiol., 225:776-780 (1973). Unidirectional chloride fluxes are determined and used to characterize bi-directional fluxes following the addition of an SS-analog. Changes are measured with varying concentrations, and the potency to inhibit ion transport is quantitated and expressed as a percentage of the potency of SS-14.
# secretion of insulin = conditions: in vivo
# Protocol: (§1) In vivo experiments are carried out with the analogs, using the procedure described in Brown et al., Metabolism (1976) Vol. 25, pp. 1501-1503, to determine the potency, relative to somatostatin-14, to inhibit the secretion of glucagon and insulin stimulated by the administration of arginine to groups of six rats.
# [1] = tested on: release of growth hormone induced by isobutyl methyl xanthine in pituitary cells; assay type: cell-based, rat
# Protocol: To determine the effectiveness of the peptides to inhibit the release of growth hormone, in vitro radioimmunoassays are carried out using the SS analogs in side-by-side comparison with equimolar concentrations of somatostatin-14 having a known effectiveness to inhibit the release of growth hormone induced by the application of isobutyl methyl xanthine to pituitary cells. Cultures are used which include cells of rat pituitary glands removed some four to five days previously in a system that minimizes enzymatic degradation, generally following the procedure set forth in Vale et al., Methods in Enzymology, Hormones and Cyclic Nucleotides (1975) Vol. 37, p. 82. Both cultures of a defined standard medium and cultures which are considered optimal for the secretion of growth hormone, as a result of having additions of either 2% or 10% of serum from a foetal calf, are used for the comparative testing.
# secretion of glucagon = tested on: secretion of glucagon; parameters: species or system rats; conditions: in vivo
# Protocol: as §1
# [2] = isolated rabbit ileum, Ussing chamber, chloride fluxes, SS-14 = 100
# [3] = arginine-stimulated, rats, SS-14 = 100
# [4] = cultured rat pituitary cells, isobutyl methyl xanthine-induced release, SS-14 = 100
Structure (SMILES),Ion Transport (potency to inhibit ion transport expressed as a percentage of the potency of SS-14) (isolated rabbit ileum),Insulin (potency to inhibit insulin secretion relative to SS-14) (secretion of insulin; rat),GH (potency for the inhibition of GH release relative to SS-14) [1],Glucagon (potency to inhibit glucagon secretion relative to SS-14) (secretion of glucagon; rat),Ion Transport (potency to inhibit ion transport expressed as a percentage of the potency of SS-14) (isolated rabbit ileum; [2]),Insulin (potency to inhibit insulin secretion relative to SS-14) (secretion of insulin; [3]),"GH (potency for the inhibition of GH release relative to SS-14) [1, 4]",Glucagon (potency to inhibit glucagon secretion relative to SS-14) (secretion of glucagon; [3])
"C[C@H](N)C(=O)NCC(=O)N[C@H]1CSSC[C@@H](C(=O)O)NC(=O)[C@H](CO)NC(=O)[C@H]([C@@H](C)O)NC(=O)[C@H](C)NC(=O)[C@H]([C@@H](C)O)NC(=O)[C@H](CCCCN)NC(=O)[C@H](Cc2c[nH]c3ccccc23)NC(=O)[C@H](Cc2ccccc2)NC(=O)[C@H](Cc2ccccc2)NC(=O)[C@H](CC(N)=O)NC(=O)[C@H](CCCCN)NC1=O [Peptide 5, [Ala^11]--SS] (H-AGCKNFFWKTATSC-OH; disulfide 3-14)",52%,< 10%,3%,–,–,–,–,–
"C[C@H](N)C(=O)NCC(=O)N[C@H]1CSSC[C@@H](C(=O)O)NC(=O)[C@H](CO)NC(=O)[C@H](Cc2ccccc2)NC(=O)[C@H]([C@@H](C)O)NC(=O)[C@H](CCCCN)NC(=O)[C@H](Cc2c[nH]c3ccccc23)NC(=O)[C@H](Cc2ccccc2)NC(=O)[C@H](Cc2ccccc2)NC(=O)[C@H](CC(N)=O)NC(=O)[C@H](CCCCN)NC1=O [Peptide 7, des-Thr^12 --SS] (H-AGCKNFFWKTFSC-OH; disulfide 3-13)",21%,< 1%,2%,< 1%,–,–,–,–
"C[C@@H](O)[C@@H]1NC(=O)[C@H](Cc2ccccc2)NC(=O)[C@H]([C@@H](C)O)NC(=O)[C@H](CCCCN)NC(=O)[C@H](Cc2c[nH]c3ccccc23)NC(=O)[C@H](Cc2ccccc2)NC(=O)[C@H](Cc2ccccc2)NC(=O)[C@H](CC(N)=O)NC(=O)[C@H](CCCCN)NC(=O)[C@@H](N)CSSC[C@@H](C(=O)O)NC(=O)[C@H](CO)NC1=O [Peptide 9, des-Ala^1,Gly^2 --SS] (H-CKNFFWKTFTSC-OH; disulfide 1-12)",–,–,–,–,231%,61%,60%,–
"C[C@H](N)C(=O)NCC(=O)N[C@H]1CSSC[C@@H](C(=O)O)NC(=O)[C@H](CO)NC(=O)[C@H]([C@@H](C)O)NC(=O)[C@H](Cc2ccccc2)NC(=O)[C@H]([C@@H](C)O)NC(=O)[C@H](CCCCN)NC(=O)[C@H](Cc2c[nH]c3ccccc23)NC(=O)[C@H](Cc2ccccc2)NC(=O)[C@H](Cc2ccccc2)NC(=O)[C@H](CC(N)=O)NC(=O)[C@@H](CCCCN)NC1=O [Peptide 15, [D-Lys^4]--SS]",–,–,–,–,139%,1%,22%,1%
"C[C@H](N)C(=O)NCC(=O)N[C@H]1CSSC[C@H](C(=O)O)NC(=O)[C@H](CO)NC(=O)[C@H]([C@@H](C)O)NC(=O)[C@H](Cc2ccccc2)NC(=O)[C@H]([C@@H](C)O)NC(=O)[C@H](CCCCN)NC(=O)[C@H](Cc2c[nH]c3ccccc23)NC(=O)[C@H](Cc2ccccc2)NC(=O)[C@H](Cc2ccccc2)NC(=O)[C@H](CC(N)=O)NC(=O)[C@H](CCCCN)NC1=O [Peptide 17, [D-Cys^14]--SS]",–,–,–,–,336%,20%,270%,310%
"C[C@@H](O)[C@@H]1NC(=O)[C@H](CCCCN)NC(=O)[C@@H](Cc2c[nH]c3ccccc23)NC(=O)[C@H](Cc2ccccc2)NC(=O)[C@H](Cc2ccccc2)NC(=O)[C@@H](N)CSSC[C@@H](C(=O)O)NC(=O)[C@H](CO)NC(=O)[C@H](Cc2ccccc2)NC1=O [Peptide 6, des-AA^1,2,4,5,12,[D-Trp^8]--SS] (H-CFF[dW]KTFSC-OH; disulfide 1-9)",257%,70%,45%,20%,–,–,–,–
"C[C@H](N)C(=O)NCC(=O)N[C@H]1CSSC[C@@H](C(=O)O)NC(=O)[C@H]([C@@H](C)O)NC(=O)[C@H](Cc2ccccc2)NC(=O)[C@H]([C@@H](C)O)NC(=O)[C@H](CCCCN)NC(=O)[C@H](Cc2c[nH]c3ccccc23)NC(=O)[C@H](Cc2ccccc2)NC(=O)[C@H](Cc2ccccc2)NC(=O)[C@H](CC(N)=O)NC(=O)[C@H](CCCCN)NC1=O [Peptide 14, des-Ser^13 --SS] (H-AGCKNFFWKTFTC-OH; disulfide 3-13)",9%,< 1%,2%,< 1%,–,–,–,–
"C[C@H](N)C(=O)NCC(=O)N[C@H]1CSSC[C@@H](C(=O)O)NC(=O)[C@H](CO)NC(=O)[C@H]([C@@H](C)O)NC(=O)[C@H](Cc2ccccc2)NC(=O)[C@H]([C@@H](C)O)NC(=O)[C@H](CCCCN)NC(=O)[C@H](Cc2c[nH]c3ccccc23)NC(=O)[C@H](Cc2ccccc2)NC(=O)[C@@H](Cc2ccccc2)NC(=O)[C@H](CC(N)=O)NC(=O)[C@H](CCCCN)NC1=O [Peptide 16, [D-Phe^6]--SS]",–,–,–,–,10%,< 1%,5%,< 1%
"C[C@H](N)C(=O)NCC(=O)N[C@H]1CSSC[C@@H](C(=O)O)NC(=O)[C@H](CO)NC(=O)[C@H]([C@@H](C)O)NC(=O)[C@H](Cc2ccccc2)NC(=O)[C@H]([C@@H](C)O)NC(=O)[C@H](CCCCN)NC(=O)[C@H](Cc2c[nH]c3ccccc23)NC(=O)[C@H](Cc2ccccc2)NC(=O)[C@H](Cc2ccccc2)NC(=O)[C@H](CC(N)=O)NC(=O)[C@H](CCCCN)NC1=O [SS-14, somatostatin]",–,–,–,–,100%,100%,100%,100%
"C[C@H](N)C(=O)NCC(=O)N[C@H]1CSSC[C@@H](C(=O)O)NC(=O)[C@H](CO)NC(=O)[C@H]([C@@H](C)O)NC(=O)[C@H]([C@@H](C)O)NC(=O)[C@H](CCCCN)NC(=O)[C@H](Cc2c[nH]c3ccccc23)NC(=O)[C@H](Cc2ccccc2)NC(=O)[C@H](Cc2ccccc2)NC(=O)[C@H](CC(N)=O)NC(=O)[C@H](CCCCN)NC1=O [Peptide 8, des-Phe^11 --SS] (H-AGCKNFFWKTTSC-OH; disulfide 3-13)",34%,< 1%,2%,< 1%,–,–,–,–
"C[C@H](N)C(=O)NCC(=O)N[C@H]1CSSC[C@@H](C(=O)O)NC(=O)[C@H](CO)NC(=O)[C@H]([C@@H](C)O)NC(=O)[C@H](Cc2ccccc2)NC(=O)[C@H]([C@@H](C)O)NC(=O)[C@H](CCCCN)NC(=O)[C@H](Cc2c[nH]c3ccccc23)NC(=O)[C@H](Cc2ccccc2)NC(=O)[C@H](Cc2ccccc2)NC(=O)[C@H](CCCCN)NC1=O [Peptide 13, des-Asn^5 --SS] (H-AGCKFFWKTFTSC-OH; disulfide 3-13)",–,–,–,–,11%,10%,4%,< 1%
